Source: patent publication US9012500B2, “PKC-ε activator” (Nishizaki Bioinformation Research Institute, priority 2010, dated 2015)

What was measured:
[1] = target: T1, PKC-ε (Homo sapiens, UniProt Q02156); test: PKC assay in cell-free system with PKC isozymes; assay type: biochemical
T1 sequence (Q02156 1-737): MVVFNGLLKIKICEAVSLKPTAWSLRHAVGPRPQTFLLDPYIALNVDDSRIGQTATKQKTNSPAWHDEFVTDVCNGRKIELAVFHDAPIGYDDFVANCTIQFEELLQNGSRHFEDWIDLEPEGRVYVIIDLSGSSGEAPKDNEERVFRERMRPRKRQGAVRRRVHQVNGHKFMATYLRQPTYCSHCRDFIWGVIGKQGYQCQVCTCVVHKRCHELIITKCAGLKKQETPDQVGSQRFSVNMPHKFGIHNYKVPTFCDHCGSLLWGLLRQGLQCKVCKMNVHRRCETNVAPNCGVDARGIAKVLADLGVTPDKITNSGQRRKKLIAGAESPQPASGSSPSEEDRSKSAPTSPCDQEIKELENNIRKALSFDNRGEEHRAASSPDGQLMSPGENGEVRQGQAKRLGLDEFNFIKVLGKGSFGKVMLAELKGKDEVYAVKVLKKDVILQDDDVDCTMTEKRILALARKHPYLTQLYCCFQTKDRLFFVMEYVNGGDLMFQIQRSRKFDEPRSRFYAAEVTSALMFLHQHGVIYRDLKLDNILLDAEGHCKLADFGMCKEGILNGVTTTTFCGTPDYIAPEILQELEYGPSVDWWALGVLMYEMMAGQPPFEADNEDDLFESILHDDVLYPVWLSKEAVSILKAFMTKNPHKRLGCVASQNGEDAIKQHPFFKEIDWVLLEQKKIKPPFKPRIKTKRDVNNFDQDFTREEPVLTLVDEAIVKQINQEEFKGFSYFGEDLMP
Experimental: The PKC activity in a cell-free system was quantified by the method described in a publication [Kanno T et al., J Lipid Res 47 (6):1146-1156, 2006]. The summary is as described below.
Synthetic PKC substrate peptide (10 μM) was reacted with various PKC isozymes in a medium containing 20 mM Tris-HCl (pH 7.5), 5 mM Mg-acetate, 10 μM ATP and each DCP-LA optical isomer (10 μM) in the absence of phosphatidylserine and diacylglycerol at 30° C. for 5 min. When the activity with new types of PKC (PKC-δ, -ε, -η and -μ) was to be measured, a medium free of Ca^2+ was used and when the activity with other PKC isozyme was to be measured, a medium containing 100 μM Ca^2+ was used. After loading on reversed-phase HPLC (LC-10ATvp, Shimadzu Co., Kyoto, Japan), a substrate peptide peak and a new resultant product peak were detected at the absorbance of 214 nm. The areas of the non-phosphorylated and phosphorylated substrate peptides m were measured (total area corresponds to the concentration of PKC substrate peptide used), and the amount of phosphorylated substrate peptide was calculated. The phosphorylated substrate peptide level (pmol/l min) was used as an index of PKC activity.

[2] = test system: glutamic acid release from the hippocampus; test: Glutamic acid release from rat hippocampus sections (HPLC); assay type: cell-based
[3] = test system: dopamine release from the striatum; test: Dopamine release from rat striatum sections (HPLC); assay type: cell-based
[4] = test system: PKC activity of rat PC-12 cells; test: Intracellular PKC assay in PC-12 cells; assay type: cell-based
Experimental: According to the method described in a publication [Kanno T et al., J Lipid Res 47 (6):1146-1156, 2006], the PKC activity of rat PC-12 cells was assayed. The cells were treated with each DCP-LA optical isomer at 37° C. for 10 min. The treatment was performed in an extracellular solution [137 mM NaCl, 5.4 mM KCl, 10 mM MgCl2, 5 mM ethyleneglycol-bis(2-aminoethylether)-N,N,N′,N′-tetraacetic acid (EGTA), 0.3 mM Na2HPO4, 0.4 mM K2HPO4 and 20 mM 4-(2-hydroxyethyl)-1-piperazin-ethanesulfonic acid, pH 7.2]. Then, the cells were rinsed with 100 μl of phosphate-buffered saline (PBS) in the absence of Ca^2+, and incubated in an extracellular solution (50 μl) containing 50 μg/ml digitonin, 25 mM glycerol 2-phosphate, 200 μM ATP and 100 μM synthetic PKC substrate peptide (Pyr-Lys-Arg-Pro-Ser-Gln-Arg-Ser-Lys-Tyr-Leu (SEQ ID NO: 1); MW, 1,374; Pyr: […]) at 37° C. for 15 min. […] A substrate peptide peak and a new resultant product peak were detected at the absorbance of 214 nm (SPD-10Avp UV-VIS detector, Shimadzu Co., Kyoto, Japan). […] The molecular weight was calculated from the two standard spectra of bradykinin (MW 1060.2) and substance P (MW 1672.9).
The areas of the non-phosphorylated and phosphorylated substrate peptides were measured (total area corresponds to the concentration of PKC substrate peptide used). […]

[5] = test system: serotonin release from the hypothalamus; test: Serotonin release from rat hypothalamus sections (HPLC); assay type: cell-based

SMILES: CCCCC[C@@H]1C[C@@H]1C[C@@H]1C[C@H]1CCCCCCCC(=O)O [α,β-DCP-LA, 8-[(1R,2S)-2-{(1R,2R)-2-pentylcyclopropylmethyl}-cyclopropyl]octanoic acid]
- activation of PKC isozymes in cell-free system (selectivity) ([1]; 10 μM, absence of phosphatidylserine and diacylglycerol, FIG. 4): selective and direct activation of PKC-ε
- PKC-ε activation action compared to the other optical isomers ([1]; cell-free system, 10 μM, FIG. 6): highest ability
- concentration at which the PKC activation action reaches maximum (bell-shaped) ([1]; cell-free system, FIG. 5): about 25 μM
- glutamic acid release stimulation action compared to the other optical isomers ([2]; 100 nM, in the presence of nicotine (1 μM), FIG. 7): remarkably high
- concentration at which glutamic acid release stimulation action reaches maximum (bell-shaped) ([2]; rat hippocampus sections, FIG. 8): about 100 nM
- glutamic acid release, substance alone vs non-treated group ([2]; treated alone, FIG. 9): did not show a remarkable difference
- effect on glutamic acid release caused by nicotine ([2]; with nicotine (1 μM), FIG. 9): remarkably enhanced
- dopamine release stimulation action compared to the other optical isomers ([3]; 100 nM, in the presence of nicotine (1 μM), FIG. 10): remarkably high
- concentration at which dopamine release stimulation action reaches maximum (bell-shaped) ([3]; rat striatum sections, FIG. 11): about 250 nM
- dopamine release, substance alone vs non-treated group ([3]; treated alone, FIG. 12): did not show a remarkable difference
- effect on dopamine release caused by nicotine ([3]; with nicotine (1 μM), FIG. 12): remarkably enhanced
- PKC activation action on PC-12 cells compared to the other optical isomers ([4]; 100 nM, 37° C., 10 min, FIG. 1): most strongly
- concentration at which the PKC activation action reaches maximum (bell-shaped) ([4]; PC-12 cells, FIG. 2): about 100 nM
- serotonin release stimulation action compared to the other optical isomers ([5]; 100 nM, in the presence of nicotine (1 μM), FIG. 13): remarkably high
- concentration at which serotonin release stimulation action reaches maximum (bell-shaped) ([5]; rat hypothalamus sections, FIG. 14): about 100 nM
- serotonin release, substance alone vs non-treated group ([5]; treated alone, FIG. 15): did not show a remarkable difference
- effect on serotonin release caused by nicotine ([5]; with nicotine (1 μM), FIG. 15): remarkably enhanced
